Here are results for one compound from ChEMBL document CHEMBL4842387, “Discovery of a Series of Hydroxamic Acid-Based Microtubule Destabilizing Agents with Potent Antitumor Activity” (J Med Chem, 2021).

This data set in a line: Metabolic stability in human liver microsomes at 1 uM in presence of NADPH regenerating system measured up to 60 mins by UFLC-MS/MS analysis. Type of data set: ADME, Microsome. As to conditions: 1 h. For orientation: Liver microsomes are a subcellular fraction often used to study metabolism.

In the case of `COc1ccc(N(C)c2nc(C)nc3ccccc23)cc1OCC(=O)NO`, the Stabilty entry was “Unstable”.
